Measured values as given in article PMC11436758, “Computer-aided drug design to generate a unique antibiotic family” (Nature Communications, 2024).

Assays:
Assay type in all cases: cell-based
S. aureus (MSSA) = assay: MIC, clinical and laboratory strains
Procedure: (§1) The medium employed for the assay was Mueller Hinton II Broth (MHB II; Becton-Dickinson, Sparks, MD, USA). Agar plates used for the organisms were trypticase soy agar plus 5% sheep blood (BD; Sparks, MD, USA). MIC assay plates were prepared using the CLSI broth microdilution procedure. Automated liquid handlers (Multidrop 384, Biomek 2000 and Biomek FX) were used to conduct serial dilutions and liquid transfers. A standardized inoculum of each organism was prepared per CLSI methods. Suspensions were prepared to equal a 0.5 McFarland standard, followed by a 1:20 dilution in test media. The inocula were dispensed into sterile reservoirs divided by length (Beckman Colter) and the Biomek 2000 was used to inoculate the plates. Daughter plates were placed on the Biomek 2000 work surface in reverse orientation so that inoculation took place from low to high drug concentration. The Biomek 2000 delivered 10 μL of the diluted suspension into each well. These inoculations yielded a final cell concentration in the daughter plates of ~5 × 10^5 colony-forming units/mL in each well. The wells of the daughter plates ultimately contained 185 μL of broth, 5 μL of drug solution, and 10 μL of bacterial inoculum. Plates were covered with a sterile lid on the top plate, placed in plastic bags, and incubated at 35 °C for ~18 h. The microplates were viewed from the bottom using a plate viewer and the MIC was read. The MIC was recorded as the lowest concentration of drug that inhibited visible growth of the organism.

S. aureus (VISA) = assay: MIC, clinical and laboratory strains
Procedure: as §1

S. aureus (MRSA) = assay: MIC, clinical and laboratory strains
Procedure: as §1

[1] = tested on: 102 ATCC strains and clinical isolates of Staphylococcus, Streptomyces, and Enterococcus; assay: MIC panel summary over all strains; conditions: of 102 strains
Procedure: We also sought to determine if DNM0547 was bacteriostatic or bactericidal. Time kill experiments were carried out using increasing doses of DNM0547 against two different strains of MRSA.
as §1

CC[C@H]1OC(=O)[C@H](C)[C@@H](O[C@H]2C[C@@](C)(OC)[C@@H](O)[C@H](C)O2)[C@H](C)[C@@H](O[C@@H]2O[C@H](C)C[C@H](N(C)C)[C@H]2O)[C@](C)(O)C[C@@H](C)C(=O)[C@H](C)[C@@H](O)[C@]1(C)O [erythromycin]
0.25 µg/mL: MIC (S. aureus (MSSA); S. aureus (MSSA) 6168) | MIC (S. aureus (MSSA); S. aureus (MSSA) 6502) | MIC (S. aureus (VISA); S. aureus (VISA) 1724) | MIC (S. aureus (VISA); S. aureus (VISA) 2017)
> 16 µg/mL: MIC (S. aureus (MSSA); S. aureus (MSSA) 6167) | MIC (S. aureus (MSSA); S. aureus (MSSA) 6316) | MIC (S. aureus (MSSA); S. aureus (MSSA) 6318) | MIC (S. aureus (MSSA); S. aureus (MSSA) 6499) | MIC (S. aureus (VISA); S. aureus (VISA) 2012) | MIC (S. aureus (VISA); S. aureus (VISA) 2013) | MIC (S. aureus (VISA); S. aureus (VISA) 2014) | MIC (S. aureus (VISA); S. aureus (VISA) 2015) | MIC (S. aureus (VISA); S. aureus (VISA) 2016) | MIC (S. aureus (VISA); S. aureus (VISA) 2018) | MIC (S. aureus (VISA); S. aureus (VISA) 2019) | MIC (S. aureus (VISA); S. aureus (VISA) 2123) | MIC (S. aureus (VISA); S. aureus (VISA) NRS1/1723) | MIC (S. aureus (MRSA); S. aureus (MRSA) 2167) | MIC (S. aureus (MRSA); S. aureus (MRSA) 2168) | MIC (S. aureus (MRSA); S. aureus (MRSA) 2169) | MIC (S. aureus (MRSA); S. aureus (MRSA) 2170) | MIC (S. aureus (MRSA); S. aureus (MRSA) 2171) | MIC (S. aureus (MRSA); S. aureus (MRSA) 2293) | MIC (S. aureus (MRSA); S. aureus (MRSA) 2294) | MIC (S. aureus (MRSA); S. aureus (MRSA) 2295) | MIC (S. aureus (MRSA); S. aureus (MRSA) 2297) | MIC (S. aureus (MRSA); S. aureus (MRSA) 3880) | MIC (S. aureus (MRSA); S. aureus (MRSA) 5373) | MIC (S. aureus (MRSA); S. aureus (MRSA) 5666) | MIC (S. aureus (MRSA); S. aureus (MRSA) 5702) | MIC (S. aureus (MRSA); S. aureus (MRSA) 5999) | MIC (S. aureus (MRSA); S. aureus (MRSA) 6165) | MIC (S. aureus (MRSA); S. aureus (MRSA) 6169) | MIC (S. aureus (MRSA); S. aureus (MRSA) 6174) | MIC (S. aureus (MRSA); S. aureus (MRSA) 6311) | MIC (S. aureus (MRSA); S. aureus (MRSA) 6312) | MIC (S. aureus (MRSA); S. aureus (MRSA) 6313) | MIC (S. aureus (MRSA); S. aureus (MRSA) 6315) | MIC (S. aureus (MRSA); S. aureus (MRSA) 6320) | MIC (S. aureus (MRSA); S. aureus (MRSA) 6501) | MIC (S. aureus (MRSA); S. aureus (MRSA) 6505) | MIC (S. aureus (MRSA); S. aureus (MRSA) NRS382/2119) | MIC (S. aureus (MRSA); S. aureus (MRSA) NRS383/2120) | MIC (S. aureus (MRSA); S. aureus (MRSA) NRS384/2011)
0.12 µg/mL: MIC (S. aureus (MSSA); S. aureus (MSSA) 2127)
0.5 µg/mL: MIC (S. aureus (MSSA); S. aureus (MSSA) 6170) | MIC (S. aureus (MSSA); S. aureus (MSSA) 6317) | MIC (S. aureus (MRSA); S. aureus (MRSA) 2296) | MIC (S. aureus (MRSA); S. aureus (MRSA) 6498) | MIC (S. aureus (MRSA); S. aureus (MRSA) 6506)
8 µg/mL: MIC (S. aureus (MSSA); S. aureus (MSSA) 6500)
76: number of strains tested with MIC not ≤ 2 μg/mL [1]

CN[C@H](CC(C)C)C(=O)N[C@H]1C(=O)N[C@@H](CC(N)=O)C(=O)N[C@H]2C(=O)N[C@H]3C(=O)N[C@H](C(=O)N[C@H](C(=O)O)c4cc(O)cc(O)c4-c4cc3ccc4O)[C@H](O)c3ccc(c(Cl)c3)Oc3cc2cc(c3O[C@@H]2O[C@H](CO)[C@@H](O)[C@H](O)[C@H]2O[C@H]2C[C@](C)(N)[C@H](O)[C@H](C)O2)Oc2ccc(cc2Cl)[C@H]1O [vancomycin]
37: number of strains tested with MIC not ≤ 2 μg/mL [1]
4 µg/mL: MIC (S. aureus (VISA); S. aureus (VISA) 1724) | MIC (S. aureus (VISA); S. aureus (VISA) 2013) | MIC (S. aureus (VISA); S. aureus (VISA) 2014) | MIC (S. aureus (VISA); S. aureus (VISA) 2015) | MIC (S. aureus (VISA); S. aureus (VISA) 2016) | MIC (S. aureus (VISA); S. aureus (VISA) 2018) | MIC (S. aureus (VISA); S. aureus (VISA) 2019)
8 µg/mL: MIC (S. aureus (VISA); S. aureus (VISA) 2012) | MIC (S. aureus (VISA); S. aureus (VISA) 2017) | MIC (S. aureus (VISA); S. aureus (VISA) 2123) | MIC (S. aureus (VISA); S. aureus (VISA) NRS1/1723)
1 µg/mL: MIC (S. aureus (MSSA); S. aureus (MSSA) 2127) | MIC (S. aureus (MSSA); S. aureus (MSSA) 6316) | MIC (S. aureus (MRSA); S. aureus (MRSA) 2169) | MIC (S. aureus (MRSA); S. aureus (MRSA) 2297) | MIC (S. aureus (MRSA); S. aureus (MRSA) 6165) | MIC (S. aureus (MRSA); S. aureus (MRSA) 6311) | MIC (S. aureus (MRSA); S. aureus (MRSA) 6315) | MIC (S. aureus (MRSA); S. aureus (MRSA) 6320) | MIC (S. aureus (MRSA); S. aureus (MRSA) NRS382/2119)
0.5 µg/mL: MIC (S. aureus (MSSA); S. aureus (MSSA) 6167) | MIC (S. aureus (MSSA); S. aureus (MSSA) 6168) | MIC (S. aureus (MSSA); S. aureus (MSSA) 6170) | MIC (S. aureus (MSSA); S. aureus (MSSA) 6317) | MIC (S. aureus (MSSA); S. aureus (MSSA) 6318) | MIC (S. aureus (MSSA); S. aureus (MSSA) 6499) | MIC (S. aureus (MSSA); S. aureus (MSSA) 6500) | MIC (S. aureus (MSSA); S. aureus (MSSA) 6502) | MIC (S. aureus (MRSA); S. aureus (MRSA) 2167) | MIC (S. aureus (MRSA); S. aureus (MRSA) 2168) | MIC (S. aureus (MRSA); S. aureus (MRSA) 2170) | MIC (S. aureus (MRSA); S. aureus (MRSA) 2171) | MIC (S. aureus (MRSA); S. aureus (MRSA) 2293) | MIC (S. aureus (MRSA); S. aureus (MRSA) 2294) | MIC (S. aureus (MRSA); S. aureus (MRSA) 2295) | MIC (S. aureus (MRSA); S. aureus (MRSA) 2296) | MIC (S. aureus (MRSA); S. aureus (MRSA) 3880) | MIC (S. aureus (MRSA); S. aureus (MRSA) 5373) | MIC (S. aureus (MRSA); S. aureus (MRSA) 5666) | MIC (S. aureus (MRSA); S. aureus (MRSA) 5702) | MIC (S. aureus (MRSA); S. aureus (MRSA) 5999) | MIC (S. aureus (MRSA); S. aureus (MRSA) 6169) | MIC (S. aureus (MRSA); S. aureus (MRSA) 6174) | MIC (S. aureus (MRSA); S. aureus (MRSA) 6312) | MIC (S. aureus (MRSA); S. aureus (MRSA) 6313) | MIC (S. aureus (MRSA); S. aureus (MRSA) 6498) | MIC (S. aureus (MRSA); S. aureus (MRSA) 6501) | MIC (S. aureus (MRSA); S. aureus (MRSA) 6505) | MIC (S. aureus (MRSA); S. aureus (MRSA) 6506) | MIC (S. aureus (MRSA); S. aureus (MRSA) NRS383/2120) | MIC (S. aureus (MRSA); S. aureus (MRSA) NRS384/2011)
